The series can be described thus: Reaction of sweetener with the amine-containing active (gel formation). The class given is physicochemical. As for the experimental part:
It has been discovered that gellation and/or agglomeration of components particularly occurred when sucralose was added to the active ingredient (such as ondansetron). It has been determined that the particular choice of excipients combined together may be important to prevent the formation of undesirable gellation and/or agglomeration. […] It is hypothesized that the amines on the active component may form quaternary salts with the primary alkyl chlorides on the sucralose. Quaternary polymers make good hydrogels, and thus undesirably form a gel-like structure, which is problematic in the processing of film matrices to form films having a uniformity of content.

Take `OC[C@H]1O[C@@](CO)(O[C@H]2O[C@H](CO)[C@@H](O)[C@H](O)[C@H]2O)[C@@H](O)[C@@H]1O` [sucrose]: the “reaction with the amine-containing active (gel formation)” value is “did not react”.

(Values after patent US9095577B2, “Stabilized amine-containing actives in oral film compositions” (MonoSol Rx, LLC, priority 2009, dated 2015).)
